Test results reported in patent US4590178A (Ajinomoto Company, Incorporated, priority 1982, dated 1986).

Key:
[1] = tested on: spontaneously hypertensive rats; assay: Antihypertensive activity: systolic blood pressure measured indirectly on conscious SHR after peroral dosing; format: in vivo, rat; conditions: for Systolic Blood Pressure, Pretreatment: SHR (male, 13 months, 2 per sample), before 35 mg/kg peroral single dose; for Systolic Blood Pressure, 4 hrs after administration / Δ Blood Pressure: SHR; for Systolic Blood Pressure, 4 hrs after administration: 4 hours after 35 mg/kg peroral single dose; for Δ Blood Pressure: 4 hours after 35 mg/kg peroral single dose versus pretreatment
Experimental: The antihypertensive activity of part of the amino acid derivatives prepared above, was determined.
As subject animals 2 SHR were used which had been trained enough and been confirmed to be hypertensive spontaneously hypertensive rats (male, 13 months of age, the body weight of 400 to 440 g) per sample.
As an instrument for measuring the blood pressure a Programmed Electro-Sphygmomanometer PE-300 (Narco Co., U.S.A.) was used, and the blood pressure was indirectly measured on conscious rats.
An aqueous solution or suspension of a sample (35 mg/kg) was once force-fed into the stomach by means of a peroral probe.
An antihypertensive activity of part of the amino acid derivatives prepared above was determined.
As subject animals there were used 2 SHR which had been trained enough and been confirmed to be hypertensive spontaneously hypertensive rats (male, 13 months of age, the body weight of 400~440 g) per sample.
As an instrument for measuring the blood pressure there was used Programmed Electro-Sphygmomanometer PE-300 (Narco Co., U.S.A.), and the blood pressure was indirectly measured on conscious rats.
An antihypertensive activity of the product prepared above was determined.

[2] = 27.7° C.

| Molecule | Systolic Blood Pressure, Pretreatment [1] | Systolic Blood Pressure, 4 hrs after administration [1] | Δ Blood Pressure [1] | .rho.Ka [2] | Median lethal dose (LD50) (mouse) | Median lethal dose (LD50) (rat) |
| --- | --- | --- | --- | --- | --- | --- |
| COP(=O)(CCc1ccccc1)N[C@@H](CCSC)C(=O)N1CCC[C@H]1C(=O)N1CCC[C@H]1C(=O)O.NC(N)=NCCC[C@H](N)C(=O)O (stereo partly drawn) [Example 41, N--(O--methyl-P--phenethylphosphonyl)-L-methionyl-L-prolyl-L-proline L-arginine salt] | 203 mm Hg | 172 mm Hg | -31 mm Hg | – | – | – |
| C[C@H](NP(=O)(CCc1ccccc1)OCc1ccccc1)C(=O)N1CCC[C@H]1C(=O)N1CCC[C@H]1C(=O)[O-].[Na+] (stereo partly drawn) [Example 42, N--(O--benzyl-P--phenethylphosphonyl)-L-alanyl-L-prolyl-L-proline sodium salt] | 194 mm Hg | 180 mm Hg | -14 mm Hg | – | – | – |
| CCOP(=O)(CCc1ccccc1)N[C@@H](C)C(=O)N1CCC[C@H]1C(=O)N1CCC[C@H]1C(=O)[O-].[Na+] (stereo partly drawn) [Example 43, N--(O--ethyl-P--phenethylphosphonyl)-L-alanyl-L-prolyl-L-proline sodium salt] | 195 mm Hg | 171 mm Hg | -24 mm Hg | – | – | – |
| CSCC[C@H](NP(=O)(CCc1ccccc1)OCc1ccccc1)C(=O)N1CCC[C@H]1C(=O)N1CCC[C@H]1C(=O)[O-].CSCC[C@H](NP(=O)(CCc1ccccc1)OCc1ccccc1)C(=O)N1CCC[C@H]1C(=O)N1CCC[C@H]1C(=O)[O-].[Ca+2] (stereo partly drawn) [Example 55, N-(O-Benzyl-P-phenethylphosphonyl)-L-methionyl-L-prolyl-L-proline calcium salt] | 210 mm Hg | 180 mm Hg | -30 mm Hg | – | – | – |
| C[C@H](NP(=O)(O)OCc1ccccc1)C(=O)N1CCC[C@H]1C(=O)N1CCC[C@H]1C(=O)O.C[C@H](NP(=O)(O)OCc1ccccc1)C(=O)N1CCC[C@H]1C(=O)N1CCC[C@H]1C(=O)O.N.N [Example 57, Monobenzylphosphoryl-L-alanyl-L-propyl-L-proline diammonium salt] | 195 mm Hg | 167 mm Hg | -28 mm Hg | – | – | – |
| COC(=O)[C@@H]1CCCN1C(=O)[C@@H]1CCCN1C(=O)[C@H](C)NP(=O)([O-])CCc1ccccc1.[Na+] [Example 80, N-Phenethylphosphonyl-L-alanyl-L-prolyl-L-proline methylester sodium salt] | 193 mm Hg | 183 mm Hg | -10 mm Hg | – | – | – |
| C[C@H](NP(=O)(OCc1ccccc1)OCc1ccccc1)C(=O)N1CCC[C@H]1C(=O)N1CCC[C@H]1C(=O)O [Example 84, Dibenzylphosphoryl-L-alanyl-L-propyl-L-proline in the crystalline form] | 219 mm Hg | 188 mm Hg | -31 mm Hg | 3.92 | more than 15 g/kg | more than 15 g/kg |
| Dibenzylphoshoryl-L-alanyl-L-prolyl-L-alanine L-arginine salt [Example 12] | 193 mm Hg | 182 mm Hg | -11 mm Hg | – | – | – |
| Dibenzylphosphoryl-L-alanyl-L-prolyl-D-alanine L-arginine salt [Example 14] | 183 mm Hg | 161 mm Hg | -22 mm Hg | – | – | – |
| Dibenzylphosphoryl-L-alanyl-L-prolyl-D-proline L-arginine salt [Example 15] | 182 mm Hg | 167 mm Hg | -15 mm Hg | – | – | – |
| Dibenzylphosphoryl-L-alanyl-L-prolyl-L-aspartic acid L-arginine salt [Example 3] | 208 mm Hg | 197 mm Hg | -11 mm Hg | – | – | – |
| Dibenzylphosphoryl-L-alanyl-L-prolyl-L-proline L-arginine salt [Example 1] | 205 mm Hg | 170 mm Hg | -35 mm Hg | – | – | – |
| Dibenzylphosphoryl-L-alanyl-L-prolyl-L-proline L-lysine salt [Example 24] | 192 mm Hg | 161 mm Hg | -31 mm Hg | – | – | – |
| Dibenzylphosphoryl-L-alanyl-L-prolyl-L-proline calcium salt [Example 53] | 220 mm Hg | 188 mm Hg | -32 mm Hg | – | – | – |
| Dibenzylphosphoryl-L-alanyl-L-prolyl-L-proline dicyclohexylamine salt [Example 74] | 195 mm Hg | 165 mm Hg | -30 mm Hg | – | – | – |
| Dibenzylphosphoryl-L-alanyl-L-prolyl-L-serine L-arginine salt [Example 2] | 202 mm Hg | 180 mm Hg | -22 mm Hg | – | – | – |
| Dibenzylphosphoryl-L-alanyl-N-(2-indanyl)-glycyl-L-proline L-arginine salt [Example 31] | 199 mm Hg | 169 mm Hg | -30 mm Hg | – | – | – |
| Dibenzylphosphoryl-L-isoleucyl-L-prolyl-L-proline L-arginine salt [Example 18] | 192 mm Hg | 171 mm Hg | -21 mm Hg | – | – | – |
| Dibenzylphosphoryl-L-prolyl-L-tyrosine L-arginine salt [Example 4] | 207 mm Hg | 195 mm Hg | -12 mm Hg | – | – | – |
| Dibenzylphosphoryl-glycyl-L-prolyl-L-proline L-arginine salt [Example 19] | 196 mm Hg | 181 mm Hg | -15 mm Hg | – | – | – |
| Diethylphosphoryl-L-alanyl-L-prolyl-L-proline L-arginine salt [Example 25] | 183 mm Hg | 156 mm Hg | -27 mm Hg | – | – | – |
| Diethylphosphoryl-L-lysyl-L-prolyl-L-proline L-arginine salt [Example 23] | 190 mm Hg | 165 mm Hg | -25 mm Hg | – | – | – |
| Diethylphosphoryl-L-lysyl-L-prolyl-L-proline calcium salt [Example 56] | 204 mm Hg | 181 mm Hg | -23 mm Hg | – | – | – |
| Diethylphosphoryl-L-methionyl-L-prolyl-L-proline L-argine salt [Example 44] | 189 mm Hg | 179 mm Hg | -10 mm Hg | – | – | – |
| N-Phenethylphosphonyl-L-methionyl-L-prolyl-L-proline 2 sodium salt [Example 34] | 183 mm Hg | 154 mm Hg | -29 mm Hg | – | – | – |
| Phosphoryl-L-alanyl-L-prolyl-L-proline L-arginine salt [Example 8] | 196 mm Hg | 177 mm Hg | -19 mm Hg | – | – | – |
